This is an account of results in patent US5652366A, “DI (1R)-(-)camphosulfonic acid) salt, preparation thereof and use thereof” (Rhone-Poulenc Rorer Pharmaceuticals Inc., priority 1995, dated 1997).

One assay deals with A2 adenosine receptor (Rattus norvegicus, UniProt P30543). Nature of the assay: biochemical. The note with it: rat brain striatum membranes, 3H-CGS 21680; Table II; read-out: Adenosine Receptor Binding Activity/IC50 (nM) A2.
The test system of the next assay is swine coronary arteries. Nature of the assay: In vitro vasorelaxation in isolated swine coronary arteries (PGF2α-contracted rings). Particulars: Sus scrofa; for EC50: Table II. Type of assay: cell-based. The protocol: Swine coronary arteries were obtained from a local slaughter house, dissected carefully and cleaned of fat, blood and adhering tissue. Rings approximately 2-3 mm wide were cut and transferred to water-jacketed tissue baths (10 ml) filled with warm (37° C.), oxygenated (O2 /CO2 :95%/5%) Krebs-Henseleit buffer and mounted on L-shaped hooks between stainless steel rods and a force transducer. […] Rings were equilibrated for 90 minutes with frequent buffer changes at a resting tension of 5 g In order to assure optimal tension development, arterial rings were primed twice with 36 mM KCl and once with 10 μm. PGF2α, before being exposed to 3 μM PGF2α. […] Tension achieved with 3 μM PGF2α was considered .equivalent to 100%; all other values were expressed as a percentage of that maximum.

The target of a further assay is T1, A1 adenosine receptor (Rattus norvegicus, UniProt P25099).
T1 sequence (P25099 1-326): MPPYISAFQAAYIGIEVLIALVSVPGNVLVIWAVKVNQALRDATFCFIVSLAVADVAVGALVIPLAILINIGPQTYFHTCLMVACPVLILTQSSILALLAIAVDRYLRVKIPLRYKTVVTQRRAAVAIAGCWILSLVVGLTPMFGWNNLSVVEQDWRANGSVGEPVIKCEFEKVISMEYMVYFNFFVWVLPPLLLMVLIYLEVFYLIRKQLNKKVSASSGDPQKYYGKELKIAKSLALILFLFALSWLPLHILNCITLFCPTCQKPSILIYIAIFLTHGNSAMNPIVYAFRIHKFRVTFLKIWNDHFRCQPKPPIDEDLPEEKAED
The assay is described as follows: biochemical. Particulars: rat whole brain membranes, 3H-CHA; Table II; read-out: Adenosine Receptor Binding Activity/IC50 (nM) A1. The protocol:
Non-specific binding was assessed in the presence of 1 mM theophylline.
The assays were run in glass test tubes in duplicate at 25° C. Once the membranes were added, the tubes were vortexed and incubated at 25° C. for 60 minutes (A1 assay) or 90 minutes (A2 assay) on a rotary shaker. The assay tubes were vortexed halfway through the incubation and again near the end. The assays were terminated by rapid filtration through 2.4 cm GF/B filters using a Brandel Cell Harvestor. The test tubes were washed three times with cold 50 mM tris-HCl (pH 7.7 or 7.4), with filtration being completed within 15 seconds. The damp filter circles were placed in glass scintillation vials filled with 10 ml of Aquasol II (New England Nuclear). The vials were allowed to shake overnight on a rotary shaker and were placed into a liquid scintillation analyzer for two minute counts. IC50 values for receptor binding, i.e. the concentration at which a compound of the invention displaced the radiolabeled standard, were obtained using a curve-fitting computer program (RS/1, Bolt, Beranek and Newman, Boston, Mass.).

Assay [1] concerns normotensive anesthetized rat. Nature of the assay: In vivo mean arterial pressure and heart rate in normotensive anesthetized rat. Particulars: iv. The protocol:
Normotensive rats were anesthetized with sodium pentobarbital (50 mg/kg, j.p.) and placed on a heated surgical table. Cannulas were inserted into the femoral artery and […] to allow the measurement of arterial pressure and to facilitate the intravenous administration of test compounds. The animals was allowed to equilibrate for 10 minutes after surgery. Mean arterial pressure was continuously measured and recorded and heart rate was monitored using the arterial pressure pulse to trigger a cardiotachometer. After baseline parameters were established and recorded, increasing doses (1, 3, 10, 30, 100, 300 and 1000 μg/kg) of the compound of the invention to be tested were administered intravenously. Maximal changes in the cardiovascular parameters were observed after each dose of the adenosine agonist. Only one compound was administered per rat.

Another assay deals with rat adipocytes. Nature of the assay: In vitro lipolysis assay in rat adipocytes (glycerol production). Type of assay: cell-based. Particulars: Rattus norvegicus, Adipocyte. As for the experimental part: Adipose tissue is removed from anesthetized rats and rinsed twice in incubation medium (2.09 g sodium bicarbonate and 0.04 g EDTA, disodium salt, in 1 L Krebs buffer). Each rat (300-350 g) yields approximately 4 ml of adipose tissue. The adipose tissue (35 ml) is cut into small pieces with scissors and washed with incubation medium (50 ml). The mixture is poured into the barrel of a 50 ml syringe to which is attached a short piece of clamped tubing instead of a needle. The aqueous phase is allowed to drain. A second wash with incubation medium is passed through the syringe. The tissue is added to 50 ml of collagenase solution (collagenase(90 mg), bovine serum albumin (BSA) (500 mg), and 0.1 M calcium chloride solution (1 ml), in incubation medium (50 ml)) in a 1 L bottle. The mixture is shaken in an environmental at 37° C. for about 60 minutes under an atmosphere of 95% oxygen/5% carbon dioxide to effect digestion of the tissue. The dispersed cells are poured through 2 layers of cheese cloth into a 100 ml plastic beaker. The undigested clumps in the cloth are rinsed once with incubation medium (20 ml). The cells in the beaker are centrifuged in 2 plastic tubes for 30 seconds at room temperature at 300 rpm. The aqueous phase is aspirated from beneath the loosely packed layer of floating fat cells and discarded. The adipocytes are gently poured into a 250 ml plastic beaker containing 100 ml of rinse solution (1 g BSA per 100 ml incubation medium). After gentle stirring the centrifugation step is repeated. Another wash with rinse solution follows. The cells are pooled and their volume is estimated with a graduated cylinder. The adipocytes are diluted in twice their volume of assay buffer (incubation medium (120 ml), BSA (1.2 g), pyruvic acid (13 mg)).
The assay is performed in 20 ml plastic scintillation vials and the total assay volume is 4.2 ml. Assay buffer (2.5 ml), diluted adipocytes (1.5 ml), and a solution of the compound to be tested (12.3 μL) adenosine agonist (12.3 μl; varying concentration) is incubated in the environmental shaker for 15 minutes, then the reaction is started with norepinephrine solution (41.2 μL) (10 nM, in a carrier solution containing water (100 ml), BSA (4 mg), and 0.1 M EDTA (20 I. LL))and adenosine deaminase (1 μg/ml, 41.2 μl). After sixty minutes in the shaker the reaction is terminated by putting the vials on ice. […] The hard lipid layer is removed by aspiration and the aqueous layer is assayed for glycerol (400 μl of sample). The positive control is done in the absence of any adenosine agonist, substituting water in place of the solution to be tested.

The mark [2] stands for this setting: 50% reduction in tension, 3 μM PGF2α, read-out: Vasorelaxation in Swine Coronary Artery/IC50.
Where [3] appears, read: dose lowering heart rate by 25%, read-out: Blood Press/Heart Rate Anesthetized Rat HR/ED25.
[4] abbreviates: dose lowering mean arterial pressure by 25%, read-out: Blood Press/Heart Rate Anesthetized Rat MAP/ED25.
Setting [5] is: read-out: % Inhibition of glycerol production.

Molecules are shown by their SMILES. Where two headings read alike, the source gives them in different places. Bounds are passed on as bounds.

The inhibition is the drop in the measured response relative to a control, in per cent.

Chain of A2 adenosine receptor (P30543 whole entry): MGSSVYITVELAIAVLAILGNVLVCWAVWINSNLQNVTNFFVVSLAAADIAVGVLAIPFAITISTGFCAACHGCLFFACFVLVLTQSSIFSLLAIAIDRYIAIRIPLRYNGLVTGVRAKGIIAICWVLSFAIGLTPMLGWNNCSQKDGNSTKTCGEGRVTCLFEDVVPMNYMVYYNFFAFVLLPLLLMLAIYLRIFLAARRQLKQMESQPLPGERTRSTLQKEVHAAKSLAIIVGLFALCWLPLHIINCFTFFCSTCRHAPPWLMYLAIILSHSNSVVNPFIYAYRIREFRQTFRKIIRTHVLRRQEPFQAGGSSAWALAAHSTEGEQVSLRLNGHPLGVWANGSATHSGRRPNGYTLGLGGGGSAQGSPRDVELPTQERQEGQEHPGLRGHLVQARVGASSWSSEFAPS

With `CCNC(=O)[C@H]1C[C@@H](n2cnc3c(N[C@H](C)Cc4ccc(Cl)s4)ncnc32)[C@@H]2OC(=O)O[C@@H]21` [Example 44, (2S)-2α,3α-dihydroxy-4β-[N6-[2-(5-chloro-2-thienyl)-(1R)-1-methylethyl]amino-9-adenyl]cyclopentane-1β-N-ethylcarboxamide-2,3-carbonate], the IC50 is 331 nM at A2 adenosine receptor and 55 nM at A1 adenosine receptor. Moreover, the EC50 in the assay with swine coronary arteries (setting [2]) was found to be 0.316 µM.

As for `OC[C@H]1O[C@@H](n2cnc3c(NCc4nc(-c5ccccc5)cs4)ncnc32)[C@H](O)[C@@H]1O` [Example 19], the values for the IC50 at A2 adenosine receptor and on A1 adenosine receptor were 1000 nM and 36 nM, respectively. Also, in the assay on swine coronary arteries (setting [2]), the EC50 came out at 0.75 µM.

`CCNC(=O)[C@H]1O[C@@H](n2cnc3c(NCCNc4nc5ccccc5s4)ncnc32)[C@H](O)[C@@H]1O` [Example 23]: the IC50 turned out to be 891 nM at A2 adenosine receptor and 0.32 nM on A1 adenosine receptor. In addition, the figures for the ED25 in assay [1] (setting [3]) and in assay [1] (setting [4]) were 7 µg/kg and 6 µg/kg, respectively. Besides, the EC50 in the assay on swine coronary arteries (setting [2]) was 4.4 µM.

With `C[C@H](Cc1sccc1Cl)Nc1ncnc2c1ncn2[C@@H]1O[C@H](CO)[C@@H](O)[C@H]1O` [Example 32, N^6-[1-methyl-2-(3-chlorothien-2-yl)ethyl]adenosine], at A1 adenosine receptor, the IC50 was determined as 0.049 nM.

Turning to `C[C@H](Cc1cc2ccccc2s1)Nc1ncnc2c1ncn2[C@@H]1O[C@H](CO)[C@@H](O)[C@H]1O` [Example 15, N^6-[(R)-1-methyl-2-(2'benzo-[b]-thiophenyl)ethyl]adenosine], the IC50 at A2 adenosine receptor was found to be 1000 nM. Moreover, the ED25 came to 1.4 µg/kg in assay [1] (setting [3]) and 1.5 µg/kg in assay [1] (setting [4]). Further, the EC50 in the assay with swine coronary arteries (read-out: Vasorelaxation in Swine Coronary Artery/IC50 (μM), 50% reduction in tension, 3 μM PGF2α) was 2.45 µM.

For the molecule `CC(C)(Cc1cccs1)Nc1ncnc2c1ncn2[C@@H]1O[C@H](CO)[C@@H](O)[C@H]1O` [Example 17, N^6-[2-(1,1-dimethyl-2'-thiophenyl)ethyl]adenosine], the IC50 at A2 adenosine receptor turned out to be 5250 nM; at A1 adenosine receptor it was 67.6 nM. In the assay with swine coronary arteries (setting [2]), the EC50 was found to be 18.8 µM.

As to `CCOc1ccc2nc(SCCNc3ncnc4c3ncn4[C@@H]3O[C@H](CO)[C@@H](O)[C@H]3O)sc2c1` [Example 11], the IC50 at A2 adenosine receptor is over 1000 nM; on A1 adenosine receptor, 7.4 nM.

As to `CCNC(=O)[C@H]1C[C@@H](n2cnc3c(N[C@H](CC)Cc4sccc4Cl)ncnc32)[C@H](O)[C@@H]1O` [Example 34], the IC50 on A2 adenosine receptor is 23 nM; at A1 adenosine receptor, 1.6 nM. Also, in the assay with swine coronary arteries (setting [2]), the EC50 was 0.072 µM.

Regarding `CCNC(=O)[C@H]1C[C@@H](n2cnc3c(N[C@H](C)Cc4ccc(Cl)s4)ccnc32)[C@H](O)[C@@H]1O` [Example 36, [1S-[1α,2β,3β,4α(S*)]]-4-[7-[[2-(5-chloro-2-thienyl)-1-methylethyl]amino]-3 H-imidazo[4,5-b]pyridin-3-yl]-N-ethyl-2,3-dihydroxycyclopentanecarboxamide], the IC50 was found to be 43.4 nM at A2 adenosine receptor and 8.8 nM at A1 adenosine receptor. Moreover, in the assay on swine coronary arteries (setting [2]), the EC50 was found to be 0.493 µM.

In the case of `Cc1nc(CCNc2ncnc3c2ncn3[C@@H]2O[C@H](CO)[C@@H](O)[C@H]2O)cs1` [Example 14, N^6-[2-(2'-methyl-4'-thiazolyl)-ethyl]adenosine], the IC50 on A2 adenosine receptor is over 1000 nM; at A1 adenosine receptor, 79.4 nM.

For the molecule `CCNC(=O)[C@H]1C[C@@H](n2cnc3c(N[C@H](C)Cc4ccc(Cl)s4)ncnc32)[C@@H]2OC(C)(C)O[C@@H]21` [6(1), (-)-[2S-[2α,3α-dimethylmethylenedioxy-4-β-[N6-[2-(5-chloro-2-thienyl)-(1R)-1-methylethyl]amino]-9-adenyl]cyclopentane]-1-β-N-ethylcarboxamide], the IC50 at A2 adenosine receptor and on A1 adenosine receptor was over 1000 nM throughout. In addition, the EC50 in the assay on swine coronary arteries (setting [2]) was 19.1 µM.

As to `OC[C@H]1O[C@@H](n2cnc3c(NC4CCCC4)ncnc32)[C@H](O)[C@@H]1O` [CPA, N-cyclopentyladenosine, reference compound], in the assay with rat adipocytes (setting [5]), the inhibition at 0.1 µM was 97% and the inhibition at 1 µM was determined as 100%. Further, the EC50 with rat adipocytes (read-out: EC50 (50% inhibition of glycerol production)) stood at 0.31 nM. In addition, the IC50 in the assay with swine coronary arteries (read-out: Vasorelaxation (IC50)) is 3180 nM.
